Several values for one entry are separate records, joined by “and”; a condition that tells them apart may be missing. Equal values may be shown once. Read-outs that look alike come from different tables or passages of the source.
How the values were obtained:
[1] = system: MDA-MB-231; assay: Cell growth inhibition (resazurin), MDA-MB-231; conditions: from EC50 values
[2] = system: LeTx-mediated cytotoxicity of RAW 264.7 cells; conditions: read-out: EC50 for inhibition of RAW 264.7 cell cytotoxicity mediated by anthrax lethal toxin; 45 minute preincubation, 1 μg/ml LF and PA, six hours; maximum concentration 330 nM
[3] = target: T1, trypsin-like activity of purified rabbit muscle 20S proteasome (Oryctolagus cuniculus, UniProt G1SWK8); assay: biochemical
T1 sequence (G1SWK8 1-271): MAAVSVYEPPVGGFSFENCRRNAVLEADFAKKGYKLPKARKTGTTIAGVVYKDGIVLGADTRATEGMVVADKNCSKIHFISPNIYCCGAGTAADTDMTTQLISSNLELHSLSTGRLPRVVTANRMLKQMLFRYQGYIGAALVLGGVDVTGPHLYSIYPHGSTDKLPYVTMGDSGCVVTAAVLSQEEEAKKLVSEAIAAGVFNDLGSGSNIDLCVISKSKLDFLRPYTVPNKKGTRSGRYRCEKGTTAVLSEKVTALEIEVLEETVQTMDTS

[4] = system: NF-κB; assay: NF-κB-mediated luciferase reporter gene assay, HEK293 NF-κB/Luc cells, TNF-α stimulation; format: cell-based, human
How it was run: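 Cells seeded at 1.5×10^4/well in phenol-red free DMEM, pretreated 1 h with 8-point half-log compound dilutions (DMSO stocks), then stimulated with TNF-α (10 μl of 50 ng/ml solution) for 6 h. Luciferase read as RLU after 10 min with Steady Lite reagent at room temperature.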

[5] = target: T1, trypsin-like activity of purified rabbit muscle 20S proteasome; assay: In vitro inhibition of 20S proteasome trypsin-like activity (Boc-LRR-AMC); conditions: under the conditions tested
[6] = system: B16-F10; assay: Cell growth inhibition (resazurin), B16-F10; conditions: from EC50 values
[7] = system: NCI-H292; assay: Cell growth inhibition (resazurin), NCI-H292; conditions: from EC50 values
[8] = system: OVCAR-3; assay: Cell growth inhibition (resazurin), OVCAR-3
[9] = target: T2, caspase-like activity of purified rabbit muscle 20S proteasome (Oryctolagus cuniculus, UniProt A0A5F9DQW2); assay: In vitro inhibition of 20S proteasome caspase-like activity (Z-LLE-AMC)
T2 sequence (A0A5F9DQW2 1-212): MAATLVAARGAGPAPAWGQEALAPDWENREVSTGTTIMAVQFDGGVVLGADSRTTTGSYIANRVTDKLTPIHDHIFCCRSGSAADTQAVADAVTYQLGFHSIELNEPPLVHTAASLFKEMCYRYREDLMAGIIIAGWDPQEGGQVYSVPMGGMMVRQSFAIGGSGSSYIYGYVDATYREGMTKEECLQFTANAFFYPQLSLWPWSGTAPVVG

[10] = system: RPMI 8226; assay: Cell growth inhibition (resazurin), RPMI 8226; conditions: for EC50: 48 hours drug exposure
[11] = system: PC-3; assay: Cell growth inhibition (resazurin), PC-3; format: cell-based, human; conditions: from EC50 values
[12] = target: T3, chymotrypsin-like activity of purified rabbit muscle 20S proteasome (Oryctolagus cuniculus, UniProt G1T4Q9); assay: In vitro inhibition of 20S proteasome chymotrypsin-like activity (suc-LLVY-AMC); conditions: EC50 Chymotrypsin-like, Table 6, values in nM
T3 sequence (G1T4Q9 1-263): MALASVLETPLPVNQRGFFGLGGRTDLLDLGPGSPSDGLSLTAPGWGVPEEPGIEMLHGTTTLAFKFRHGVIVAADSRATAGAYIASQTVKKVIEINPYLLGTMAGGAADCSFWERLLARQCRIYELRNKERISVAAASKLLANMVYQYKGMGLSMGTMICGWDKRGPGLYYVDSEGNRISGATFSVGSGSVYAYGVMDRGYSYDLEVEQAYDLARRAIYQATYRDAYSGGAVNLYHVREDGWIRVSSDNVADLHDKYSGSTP

[13] = system: U266; assay: Cell growth inhibition (resazurin), U266; conditions: for EC50: 48 hours drug exposure
[14] = system: HT-29; assay: Cell growth inhibition (resazurin), HT-29; conditions: from EC50 values
[15] = Stability in solution; format: physicochemical; conditions: converted to VI-1B; mixture of II-48 and VI-1B in the ratio of 7:3
Description: The reaction mixture was stirred at room temperature for about 3 hours. The solvent was evaporated from the reaction mixture to yield the compound of Formula II-48, which was purified by reversed phase HPLC using Ace 5u C18 column (150 mm×22 mm ID) with a solvent gradient of 10% to 70% H2O/Acetonitrile over 15 min, 70 to 100% Acetonitrile over 5 min, holding at 100% Acetonitrile for 4 min, at a flow rate of 14.5 ml/min. Diode array detector was used to monitor the purification process. Compound II-48 (10 mg) eluted as a pure compound at 8.255 min. […] Compound VI-1B: UV (Acetonitrile/H2O) λmax 235 (sh) nm; ESMS, m/z 585.2 (M+H)^−.

With C[C@@]12OC(=O)[C@]1([C@@H](O)[C@H]1CCCC3OC31)NC(=O)[C@@H]2CCCl (single isomer, unassigned) [Formula II-5A] the “cytotoxicity against MDA-MB-231, in words” value [1] was “cytotoxic”, the EC50 [2] was 3 nM and the EC50 [3] was 90 nM. For the same molecule, the “effect on luciferase activity upon TNF-α stimulation, in words” value ([4]; pretreatment of NF-κB/Luc 293 cells) was “dose-dependent decrease”, the EC50 ([4]; read-out: EC50, NF-κB-mediated luciferase reporter gene assay, Table 5, values in nM, 1 hr pretreatment, TNF-α 6 hr) was 33 nM and the “inhibition of the trypsin-like activity of the 20S proteasome, in words” value [5] was “able to inhibit”. The “cytotoxicity against B16-F10, in words” value [6] was “cytotoxic”, the “cytotoxicity against NCI-H292, in words” value [7] was “cytotoxic” and the “cytotoxicity against OVCAR-3, in words” value ([8]; from EC50 values) was “cytotoxic”. For the same molecule, the EC50 ([8]; read-out: EC50 against OVCAR-3, Table 1, 48 hours drug exposure) was 64 nM, the EC50 ([9]; EC50 Caspase-like, Table 6, values in nM) was 535 nM and 438 nM and the EC50 ([9]; EC50 values, caspase-like activity, summary of Table 6) was 213 to 850 nM. The “cytotoxicity against RPMI 8226, in words” value ([10]; from EC50 values) was “cytotoxic”, the EC50 ([10]; read-out: EC50 against RPMI 8226, Table 1) was 29 nM and the EC50 ([10]; read-out: RPMI 8226 EC50, Table 2, mean ± SD where n≥3) was 36 nM and 29 nM. For the same molecule, the “cytotoxicity against PC-3, in words” value [11] was “cytotoxic”, the EC50 [12] was 6 nM and 7 nM and the “cytotoxicity against U266, in words” value ([13]; from EC50 values) was “cytotoxic”. The EC50 ([13]; read-out: EC50 against U266, Table 1) was 9 nM, the EC50 ([13]; read-out: U266 EC50, Table 2) was 10 nM and 9 nM and the “cytotoxicity against HT-29, in words” value [14] was “cytotoxic”.

In the case of C[C@]1(O)[C@@H](CCCl)C(=O)N[C@]1(C(=O)SCC(NC(=O)CCC(N)C(=O)O)C(=O)NCC(=O)O)[C@@H](O)[C@@H]1C=CCCC1 (stereo partly shown) [Formula II-48], the stability in solution [15] is reported as “unstable in solution”.

Source: US7544814B2, “[3.2.0] Heterocyclic compounds and methods of using the same” (Nereus Pharmaceuticals, Inc., priority 2004, dated 2009)
